Like-named read-outs stand apart in the source and are kept apart here.
Key:
IL-1β = assay: PBMC assay: IL-1β release after LPS stimulation; assay type: cell-based; conditions: human PBMCs, 30 min compound, 100 ng/ml LPS for 6 hrs, MSD, read-out: IL1β AC50
Method: The activity of a compound according to the present invention can be assessed by in vitro methods.
(§1) Peripheral venous blood was collected from healthy individuals and human peripheral blood mononuclear cells (PBMCs) were isolated from blood by Ficoll-Histopaque (Sigma-Aldrich, A0561) density gradient centrifugation. After isolation, PBMCs were stored in liquid nitrogen for later use. Upon thawing, PBMC cell viability was determined in growth medium (RPMI media supplemented with 10% fetal bovine serum, 1% Pen-Strep and 1% L-glutamine). Compounds were spotted in a 1:3 serial dilution in DMSO and diluted to the final concentration in 30 μl medium in 96 well plates (Falcon, 353072). PBMCs were added at a density of 7.5×10^4 cells per well and incubated for 30 min in a 5% CO2 incubator at 37° C. LPS stimulation was performed by addition of 100 ng/ml LPS (final concentration, Invivogen, tlrl-smlps) for 6 hrs followed by collection of cellular supernatant and the analysis of IL-1β (μM) and TNF cytokines levels (μM) via MSD technology according to manufacturers' guidelines (MSD, K151A0H).
(§2) IC50 and AC50 values (for […]) and EC50 and AC50 values (TNF) were obtained on compounds of the invention/examples, and the AC50 values are depicted in the following table: […]

TNF = assay: PBMC assay: TNF cytokine level after LPS stimulation; assay type: cell-based; conditions: human PBMCs, 30 min compound, 100 ng/ml LPS for 6 hrs, MSD
Method: as §1, §2

SMILES	AC50 (IL-1β; PBMC)	AC50 (TNF; PBMC)	AC50 (IL-1β)	AC50 (TNF)
CC(C)COc1c(C(C)C)nn(CC(=O)Nc2ccc3nncn3c2)c(=O)c1F [Compound 61]	160 nM	> 20000 nM	–	–
CC(C)COc1c(C(C)C)nn(CC(=O)Nc2ccc3nncn3n2)c(=O)c1C(F)F [Compound 62]	180 nM	3750 nM	–	–
Cc1nccc(NC(=O)Cn2nc(C(C)C)c(OCC(C)C)cc2=O)c1F [Compound 63]	190 nM	> 20000 nM	–	–
CC(C)c1nn(CC(=O)Nc2ccc3nncn3c2)c(=O)cc1OCC1(F)CC1 [Compound 64]	200 nM	> 20000 nM	–	–
Cc1cc(NC(=O)Cn2nc(C(C)C)c(OCC(C)C)cc2=O)ccn1 [Compound 65]	210 nM	> 20000 nM	–	–
CC(C)COc1cc(=O)n(CC(=O)NC23CC(C#N)(C2)C3)nc1C(C)C [Compound 66]	220 nM	> 20000 nM	–	–
CC(C)COc1cc(=O)n(CC(=O)NC23CCC(C(=O)O)(CC2)CC3)nc1C(C)C [Compound 67]	240 nM	> 20000 nM	–	–
Cc1c(OCC(C)C)c(C(C)C)nn(CC(=O)Nc2ccc3nccn3n2)c1=O [Compound 68]	240 nM	> 20000 nM	–	–
CC(C)COc1cc(=O)n(CC(=O)Nc2nc3ccc(F)cn3n2)nc1C(C)C [Compound 69]	250 nM	> 20000 nM	–	–
CC(C)COc1cc(=O)n(CC(=O)Nc2ccc3nncn3c2)nc1N(C)C [Compound 70]	260 nM	> 20000 nM	–	–
COC(=O)CC12CC(NC(=O)Cn3nc(C(C)C)c(OCC(C)C)cc3=O)(C1)C2 [Compound 71, methyl 2-(3-(2-(4-isobutoxy-3-isopropyl-6-oxopyridazin-1(6H)-yl)acetamido)bicyclo[1.1.1]pentan-1-yl)acetate]	260 nM	> 20000 nM	–	–
CC(C)c1nn(CC(=O)Nc2ccc3nncn3n2)c(=O)c(Cl)c1OCC(F)(F)F [Compound 72]	270 nM	16600 nM	–	–
Cc1c(OCC(C)C)c(C(C)C)nn(CC(=O)Nc2ccncc2)c1=O [Compound 73]	330 nM	> 20000 nM	–	–
CC(C)c1nn(CC(=O)Nc2ccc3nncn3c2)c(=O)c(Cl)c1OCC1CC1 [Compound 74]	360 nM	> 20000 nM	–	–
CC(C)COc1cc(=O)n(CC(=O)NC23CCC(N)(CC2)C3)nc1C(C)C [Compound 75, N-((1r,4r)-4-aminobicyclo[2.2.1]heptan-1-yl)-2-(4-isobutoxy-3-isopropyl-6-oxopyridazin-1(6H)-yl)acetamide]	360 nM	> 20000 nM	–	–
CN(C)c1nn(CC(=O)Nc2ccc3nncn3n2)c(=O)cc1OCC1CC1 [Compound 76]	370 nM	> 20000 nM	–	–
CC(C)COc1cc(=O)n(CC(=O)Nc2nc3ncccn3n2)nc1C(C)C [Compound 77]	400 nM	> 20000 nM	–	–
CCCS(=O)(=O)C12CC(NC(=O)Cn3nc(C(C)C)c(OCC(C)C)cc3=O)(C1)C2 [Compound 78, 2-(4-isobutoxy-3-isopropyl-6-oxopyridazin-1(6H)-yl)-N-(3-(propylsulfonyl)bicyclo[1.1.1]pentan-1-yl)acetamide]	420 nM	> 20000 nM	–	–
CC(C)COc1cc(=O)n(CC(=O)NC23CC(CO)(C2)C3)nc1C(C)C [Compound 79]	430 nM	> 20000 nM	–	–
COc1ccn2nc(NC(=O)Cn3nc(C(C)C)c(OCC(C)C)cc3=O)nc2c1 [Compound 80]	–	–	450 nM	> 20000 nM
CCN1CC[C@]12C[C@H](NC(=O)Cn1nc(C(C)C)c(OCC(C)C)cc1=O)C2 [Compound 81, N-((4s,6r)-1-ethyl-1-azaspiro[3.3]heptan-6-yl)-2-(4-isobutoxy-3-isopropyl-6-oxopyridazin-1(6H)-yl)acetamide]	480 nM	> 20000 nM	–	–
CC(C)COc1cc(=O)n(CC(=O)NC23CC(O)(C2)C3)nc1C(C)C [Compound 82]	500 nM	> 20000 nM	–	–
CC(C)COc1cc(=O)n(CC(=O)NC23CC(C(F)F)(C2)C3)nc1C(C)C [Compound 83]	510 nM	> 20000 nM	–	–
CCCOc1c(C(C)C)nn(CC(=O)Nc2ccc3nncn3c2)c(=O)c1Cl [Compound 84]	630 nM	19400 nM	–	–

Reference: patent US20240109905A1, “4-ALKOXY-6-OXO-PYRIDAZINE DERIVATIVES MODULATING NLRP3” (JANSSEN PHARMACEUTICA NV, priority 2021, published 2024)
